In patent US20230383261A1, “HEPATOCYTE-LIKE CELLS” (Sana Biotechnology, Inc., priority 2020, published 2023):
One block for each compound: values may come before it.

Legend:
Assay type in all cases: cell-based, human
hPSC-Heps spheroids = settings: for ammonia detoxification: media containing ammonia; for ammonia detoxification with excess arginine: media containing ammonia and arginine
Procedure: Human pluripotent stem cell-derived hepatocytes (hPSC-Heps) were obtained after 21 days of differentiation using a 2D adherent protocol. At day 21 the hPSC-Heps were aggregated into spheroids, and then encapsulated within alginate 48 hours later. The spheroids including the alginate encapsulated spheroids were cultured for 14 days in either vitamin K1, vitamin K2 MK4, […], vitamin E, or a combination of all. The spheroids were cultured at a concentration of about 1×10^6 encapsulated cells/ml for the culture period.

[1] = system: CYP3A4 activity in hepatocyte-like cells; experiment: CYP3A4 enzyme activity assay of hepatocyte maturation, media with or without HGF; settings: absence of HGF in the culture media after the first 14 days of 2D differentiation, vs media containing HGF
Procedure: Mature hepatocyte-like cells were differentiated from human pluripotent stem cells using a 2D differentiation protocol for the first 14 days of differentiation, and then the cells were cultured in media lacking recombinant HGF. At day 14, hepatocytes at the hepatic endoderm stage were dissociated and seeded into these plates in fully supplemented HepatoZYME-SFM media. 24 hours later the cells were cultured and maintained in media lacking recombinant HGF. Hepatocyte maturation was determined using a CYP3A4 enzyme activity assay.

[2] = system: hepatocyte and urea cycle genes in hepatocyte-like cells; experiment: qPCR expression of hepatocyte and urea cycle genes in iPSC-derived hepatocyte-like cells (Protocols A and B)
Procedure: (§1) Human iPSCs were differentiated to hepatocyte-like cells essentially as described in […] et al., Nature Prot. 8(2):430-437 (2013) (Protocol A) or Blackford et al., Stem Cells Transl Med. 8(2):124-137 (2019) (Protocol B) with the following modifications: cells were maintained in the final medium until a total culture time of 35 days and HepatoZYME basal medium was substituted in Protocol B starting at day 8. Forskolin was added to the final medium at a concentration of […] on day 21 (Protocol A) or day 28 (Protocols A and B). Expression of hepatocyte and urea cycle genes was measured by qPCR and/or fluorescent Western blot analysis. Ureagenesis of the cells was assayed using Urea Assay Kit (BioChain).

hepatocyte-like cells [3] = experiment: urea production assay at day 35, 2D differentiation with forskolin; settings: forskolin about 5 μM to about 10 μM after the first 26 days, read at day 35
Procedure: Mature hepatocyte-like cells were differentiated from human pluripotent stem cells using a 2D differentiation protocol for the first 26 days of differentiation, and then the immature hepatocyte-like cells were cultured in media containing forskolin (ranging from about 5 μM to about 10 μM). At day 35, the activity for the hepatocytes was determined using a urea production assay.

[4] = system: hepatocyte maturation genes and urea cycle genes in hepatocyte-like cells; experiment: Taqman qPCR gene expression, 3D differentiation protocol with or without forskolin; settings: 10 μM forskolin days 28 to 35, vs untreated
Procedure: In the process, the pluripotent stem cells differentiate through different stages including a definitive endoderm stage, an anterior definitive endoderm stage, a foregut endoderm stage, a hepatic endoderm stage, an immature hepatocyte stage, and a mature hepatocyte stage. […] All pluripotent cell lines robustly differentiated in the endoderm lineage in the 3D format, with all cell lines achieving a target efficiency of 90% CXCR4 expressing cells. Gene expression analysis was performed on hepatocyte-like cells produced by either (i) a 3D differentiation protocol or (ii) a 3D differentiation protocol with the addition of 10 μM forskolin from days 28 to day 35. Duplicate RNA samples were isolated at selected time point of the differentiation and gene expression was analyzed by Taqman qPCR.

hepatocyte-like cells [5] = experiment: ureagenesis after ammonia challenge (Urea Assay Kit); settings: day 35, seven-day forskolin
Procedure: as §1, with “(BioChain). Ureagenesis activity was measured in day 35 cells from Protocol A and Protocol B following seven-day treatment with forskolin, following challenge of the hepatocyte-like cells with 0-16 mM ammonia. […] For Protocol A, ureagenesis activity peaked at stimulation with 5 mM ammonia treatment at about 20 nmol/min/10^6 cells, and levels were observed higher than those seen using primary human hepatocytes. For […], ureagenesis activity peaked at stimulation with 10 mM ammonia at a level similar to primary human hepatocytes, about 3 nmol/min/10^6 cells.” for “(BioChain).”

[6] = system: hepatocyte-specific genes and urea cycle enzyme genes; experiment: gene expression in differentiation methods A, B and C with forskolin; settings: forskolin at days 21-35 or 30-35 (3D) or days 28-35 (2D)
Procedure: This example provides urea cycle gene expression of hepatocyte-like cells differentiated using three different methods, such as a 3D differentiation method with forskolin treatment at days 21-35 (method A), a 3D differentiation method with forskolin treatment at days 30-35 (method B), and a 2D differentiation method with forskolin treatment at days 28-35 (method C). The expression of the following genes were measured: alpha fetoprotein (AFP), albumin (ALB), arginase 1 (ARG1), asialoglycoprotein receptor 1 (ASGR1), agininosuccinate lyase (ASL), argininosuccinate synthase 1 (ASS1), carbamoyl-phosphate synthase 1 (CPS1), glucose-6-phosphatase (G6PC), hepatocyte nuclear factor 4 alpha (HNF4a), keratin type I cytoskeletal 18 (KRT18), […] (NAGS), ornithine transcarbamylase (OTC), and SOX9. Expression of cardiac-specific markers NKX2.5 and TNNT2 were used as a negative expression control.
In this study, forskolin treatment was included at days 21-35 of the 3D hepatocyte differentiation process outlined above, at days 30-35 of the 3D hepatocyte differentiation process outlined above, or days 28-35 of the 2D hepatocyte differentiation process outlined above. Gene expression of numerous hepatocyte and urea cycle markers was measured at different time points.

Compound: CC(C)=CCC/C(C)=C/CC/C(C)=C/CC/C(C)=C/CC/C(C)=C/CC/C(C)=C/CC/C(C)=C/CC1=C(C)C(=O)c2ccccc2C1=O [vitamin K2 MK7]
- functional maturation status of the hepatocytes (urea synthesis) (hPSC-Heps spheroids): increased the functional maturation status

Compound: HGF: recombinant hepatocyte growth factor in culture media
- hepatocyte maturation (CYP3A4 enzyme activity) [1]: enhanced hepatocyte maturation

Compound: CC(C)=CCC/C(C)=C/CC/C(C)=C/CC/C(C)=C/CC1=C(C)C(=O)c2ccccc2C1=O [vitamin K2]
- ammonia detoxification (hPSC-Heps spheroids): more effective at detoxifying ammonia
- ammonia detoxification with excess arginine (hPSC-Heps spheroids): detoxified ammonia even faster

- expression of hepatocyte-like cell genes (HNF4a, AFP, ALB, ASGR1) ([2]; Protocol A, forskolin 10 mM in medium at days 21-28, vs cells without forskolin, qPCR): no significant effect
- enhancement of hepatocyte-like cell gene (HNF4a, ALB, ASGR1) expression ([2]; Protocol B, forskolin 10 mM at days 28-35, read at day 35, vs cells without forskolin): 2-4 fold
- ureagenesis activity of the differentiated mature hepatocyte (hepatocyte-like cells [3]): enhanced the ureagenesis activity
- expression of hepatocyte maturation genes and urea cycle genes [4]: increases in expression
- expression of hepatocyte-specific and urea cycle enzyme genes including ALB, ARG1, ASGR1, ASL, CPS1, G6PC, HNF4a and/or NAGS [6]: increased expression
Compound: C=C[C@@]1(C)CC(=O)[C@]2(O)[C@@]3(C)[C@@H](O)CCC(C)(C)[C@@H]3[C@H](O)[C@H](OC(C)=O)[C@@]2(C)O1 [forskolin]
- increase in urea cycle gene CPS1 ([2]; Protocol A, forskolin 10 mM at days 21-28, vs cells without forskolin, qPCR): 5-8 fold
- peak ureagenesis activity (hepatocyte-like cells [5]; Protocol A, stimulation with 5 mM ammonia, higher than primary human hepatocytes): about 20 nmol/min/10^6 cells
- peak ureagenesis activity (hepatocyte-like cells [5]; printed Protocol A (second mention), stimulation with 10 mM ammonia, similar to primary human hepatocytes): about 3 nmol/min/10^6 cells

Compound: CC(C)=CCC/C(C)=C/CC/C(C)=C/CC/C(C)=C/CC1=C(C)C(=O)c2ccccc2C1=O [vitamin K2 MK4]
- functional maturation status of the hepatocytes (urea synthesis) (hPSC-Heps spheroids): increased the functional maturation status

Compound: CC1=C(C/C=C(\C)CCC[C@H](C)CCC[C@H](C)CCCC(C)C)C(=O)c2ccccc2C1=O [vitamin K1]
- functional maturation status of the hepatocytes (urea synthesis) (hPSC-Heps spheroids): increased the functional maturation status
- ammonia detoxification (hPSC-Heps spheroids): more effective at detoxifying ammonia
- ammonia detoxification with excess arginine (hPSC-Heps spheroids): detoxified ammonia even faster
